Results: patent US20250276065A1, “Electro Magnetic Transducer Network in the Enhancement of Anti-infective Strategies” (priority 2022, published 2025)
Entries after “also recorded” stand apart in the source; their conditions may differ.

How the values were obtained:
[1] = test system: Staph epidermidis biofilm; assay: AlamarBlue biofilm eradication with fNPs or NPs, PEMF and vancomycin (Example 2, Phase I); type: cell-based, Staphylococcus epidermidis
Protocol: A series of experiments were conducted on Staphylococcus epidermidis and aureus. Staph epidermidis cells were grown, diluted, and aliquoted onto cell culture plates. Biofilm was formed by letting the bacteria grow for 48 hrs. in the tissue culture wells. Planktonic cell growth was measured using serial dilutions and subsequently determining CFU/mL counts. Biofilm assay was performed through AlamarBlue cell viability reagent and obtaining fluorescence readings at 544/590 excitation/emission (ex/em). Magnetic nanoparticles functionalized with a lectin, Concanavalin-A, were purchase from Sigma Aldrich. Vancomycin was used as an antibiotic.
Biofilm-containing plates were exposed to different conditions and specifically: • 1) No treatment • 2) Vancomycin alone • 3) PEMF alone • 4) PEMF+Vancomycin • 5) fNPs only (5 different fNPs concentration) • 6) PEMF+fNPs (5 different fNPs concentration) • 7) PEMF+fNPs+Vancomycin (5 different fNPs concentration) • 8) NPs only (5 different fNPs concentration) • 9) PEMF+NPs (5 different fNPs concentration)
The NPs in the functionalized and non-functionalized groups had the same composition and size distribution. PEMF exposure was delivered at 37° C. and various periods: 0 hrs, 6 hrs, and 12 hrs.

[2] = test system: Staphylococcus epidermidis (SE) biofilm; assay: Biofilm eradication by PEMF and Con-A t-MNPs (Example 3, preliminary data); type: cell-based; conditions: PEMF + Con-A t-MNPs + antibiotic (FIG. 9)
Protocol: Using Staphylococcus epidermidis (SE), the biofilm eradication increased over 80% when PEMF was administered at a frequency of 50 kHz and a magnetic field amplitude of 1.2 mT along with t-MNPs functionalized with Concanavalin-A (Con-A) that target components of the bacterial membrane, cell wall, and extracellular matrix.

[3] = test system: S. epidermidis biofilms; assay: Eradication of pre-formed S. epidermidis biofilm by PEMF + antibiotic on plastic plates (Example 4, Phases 2 and 3); type: cell-based, Staphylococcus epidermidis; conditions: for combined PEMF + antibiotic treatment compared to theoretical additive effect: all time points, plastic 6-well plates; for eradication of S. epidermidis biofilm by antibiotic alone: no PEMF
Protocol: Staphylococcus epidermidis (S. epidermidis) ATCC 14990 was used for the biofilm experiments. The observed results were further confirmed by repeating said tests on S. epidermidis strain ATCC 35984. To test the above model the cells were first grown in Trypticase Soy Broth (TSB) (30 gl^−1 in purified water, autoclaved at 121° C. for 15 min; Becton, Dickinson and Company, Los Angeles, CA). The cells were incubated for 24 hours at 37° C. and then diluted 1:100 into TSB with glucose and plated. Five phases of experiments with this set-up have been successfully completed:
3) Evaluation of PEMFs ability to enhance the efficacy of antibiotic (specifically oxacillin and vancomycin) treatment against fully formed S. epidermidis biofilms on cell culture treated plastic plates.
For the biofilm inhibition experiments PEMF was applied to all experimental plates immediately after the cells were plated, with the […] being placed in a non-treated 37° C. incubator for the duration of treatment. Alternatively, for phases 2-4, cells were plated and then placed back in the non-treated 37° C. incubator for 24 hours (deemed adequate time for a biofilm to fully form through the literature and confirmed by preliminary experiments) before being exposed to PEMF.
In each phase, PEMF exposure was delivered for the following intervals: • 0 hours ([…] group, in 37° C. incubator for entirety of experiment) • 4 hours×2 cycles (exposed to PEMF hours 1-4, placed in 37° C. incubator hours 5-8, exposed to PEMF hours 9-12) • 12 hours continuously • 24 hours continuously
It is important to note that for all phase 3 trials, all PEMF exposure groups were tested as listed and compared to identical PEMF exposure times plus antibiotic. In phase 5 trials, PEMF exposure was delivered for alternate intervals of 0 hours, 3 hours, 6 hours, and 12 hours. This decision was due to the increased biofilm eradication ability of PEMF when combined with magnetic fNPs. As greater eradication was observed, it was deemed relevant to test shorter PEMF exposure intervals that are more applicable in the clinical setting.
At the conclusion of said experiments, crystal violet and alamarBlue assays were used to quantify the remaining viable biofilm in each well, and CFU/ml counts were used to quantify the planktonic (free-living) S. epidermidis cells.
The calculation performed to determine the theoretical additive effect of PEMF+antibiotic treatment and compare to the empirical effect of simultaneous PEMF and antibiotic treatment was a simple probability calculation: P(A)+(1−P(A))*P(B).

[4] = test system: S. epidermidis biofilms; assay: Crystal violet assay of total biomass of pre-formed S. epidermidis biofilms, PEMF with or without antibiotic (Example 1); type: cell-based, Staphylococcus epidermidis; conditions: for eradication of S. epidermidis biofilm by antibiotic alone: antibiotic alone at MIC, no PEMF, CV and alamarBlue (FIG. 2, FIG. 3); for combined PEMF + antibiotic treatment compared to theoretical additive effect: antibiotic at MIC, all PEMF time points, p<0.001
Protocol: Experiments were performed initially on S. epidermidis strain ATCC 14990 and further tested on S. epidermidis strain ATCC 35984, which is known to be a particularly strong biofilm former (Okajima, Y. et al., 2006, Invest Ophthalmol Vis Sci, 47(7):2971-2975). Trypticase soy broth (TSB) (30 g l^−1 in water, autoclaved at 121° C. for 15 minutes; BD Bacto TSB from Fisher Scientific) was used for in vitro growth of bacterial cell cultures, and 50% glucose was added to the medium at a final concentration of 0.25%. Sterile Falcon 6-well, clear, flat-bottom, tissue culture-treated, cell culture plates (Corning; Lot #1059012) and sterile CELLSTAR cell culture 24-well, PS, clear, tissue culture-treated plates (Greiner; Lot #E100501A) were used for S. epidermidis cell plating and biofilm growth (6-well plates used for crystal violet assay experiments; 24-well plates used for alamarBlue assay experiments).
The PEMF apparatus was custom made in the laboratory and was previously described in Ghalayani Esfahani et al. 2019 (Esfahani, A. et al., 2019, J Appl Microbiol, 126(1):87-101). Briefly, the PEMF apparatus consisted of an acrylic shelved rack with wrap-around Helmholtz coils, a signal generator, and a power supply. […] A digital oscilloscope (TBS1000C, Tektronix, Beaverton, OR) was used to monitor the signal waveform. All plates not under PEMF treatment were kept in a 37° C. incubator, identical temperature to the PEMF incubator.
S. epidermidis biofilms were grown by initially incubating freezer stock S. epidermidis cell scrapings in TSB media at 37° C. for 24 hours with shaking. Subsequently, the cells were diluted 1:100 into TSB media containing 0.25% glucose and then aliquoted, in 3 ml or 1 ml aliquots, into 6-well or 24-well plates, respectively. To test the ability of PEMF to disrupt pre-formed biofilms, inoculated plates were incubated for 24 hours to allow biofilm formation to occur. Negative controls of only TSB media containing 0.25% glucose (i.e., no cells) were also included for all plates to ensure no contamination occurred.
Crystal Violet (CV) assay was utilized to quantify biofilm formation in vitro as previously described (Esfahani, A. et al., 2019, J Appl Microbiol, 126(1):87-101). After incubation of the biofilm in the plates with or without treatment, the media and any non-adhered cells were removed. The well of the plates were then washed with Wash Buffer three times to ensure only biofilm-adhered cells remained. Next, wells were incubated with CV at room temperature for 15 minutes. The CV stain was then removed, and wells were washed twice with water. An 80% ethanol/20% acetone solution was then added and allowed to incubate for 20 minutes at room temperature to solubilize the dye. Absorbance readings were thereafter obtained at 570 nm and recorded for each well (BMG LABTECH, FLUOstar Omega plate reader).
To test possible synergism between PEMF exposure and antibiotic treatment, the MIC of both oxacillin and vancomycin for the specific S. epidermidis strain used was determined. S. epidermidis were first incubated in TSB media at 37° C. for 24 hours with shaking. […] After 24 hours, OD600 readings of the wells were taken. The MIC of each antibiotic was determined to be the lowest concentration to show inhibition of planktonic S. epidermidis cell growth.
To confirm the reproducibility of results, all experiments were run identically at least three times with similar outcomes before results were analyzed and reported. […]

[5] = test system: mammalian cells; conditions: cited from earlier work
[6] = up to 20 times its minimum bactericidal concentration; cited from earlier work
[7] = test system: S. aureus (both methicillin- and vancomycin-resistant), S. epidermidis, and P. aeruginosa; conditions: cited from earlier work
[8] = test system: Staphylococcal membranes; conditions: within 60 minutes of exposure; cited from earlier work

Molecule: CN[C@H](CC(C)C)C(=O)N[C@H]1C(=O)N[C@@H](CC(N)=O)C(=O)N[C@H]2C(=O)N[C@H]3C(=O)N[C@H](C(=O)N[C@H](C(=O)O)c4cc(O)cc(O)c4-c4cc3ccc4O)[C@H](O)c3ccc(c(Cl)c3)Oc3cc2cc(c3O[C@@H]2O[C@H](CO)[C@@H](O)[C@H](O)[C@H]2O[C@H]2C[C@](C)(N)[C@H](O)[C@H](C)O2)Oc2ccc(cc2Cl)[C@H]1O [vancomycin]
- effect on eradication of adding Vancomycin to fNPs + PEMF ([1]; PEMF + fNPs + Vancomycin): does not increase much the eradication
- increase in biofilm eradication ([1]; antibiotic used alone): 5%
- change in percentage of eradication when antibiotic was added to the nanoparticles [2]: only slightly increased
- combined PEMF + antibiotic treatment compared to theoretical additive effect [3]: significantly synergistic
- eradication of S. epidermidis biofilm by antibiotic alone [3]: Neither oxacillin nor vancomycin alone significantly eradicated
- eradication of S. epidermidis biofilm by antibiotic alone [4]: Neither oxacillin nor vancomycin (FIG. 2, FIG. 3) alone significantly eradicated
- combined PEMF + antibiotic treatment compared to theoretical additive effect [4]: synergistically enhanced; also recorded: significantly synergistic

Molecule: LL-37: human cathelicidin antimicrobial peptide; N-terminal-cysteine form CLLGDFFRKSKEKIGKEFKRIVQRIKDFLRNLVPRTES (SEQ ID NO: 1) (N-terminal cysteine)
- toxicity to mammalian cells [5]: non-toxic

Molecule: WR12: de novo designed synthetic antimicrobial peptide; N-terminal-cysteine form CRWWRWWRRWWRR (SEQ ID NO: 2) (N-terminal cysteine)
- cytotoxicity levels [6]: negligible
- antibacterial activity [7]: potent antibacterial activity
- leakage of preloaded intracellular calcein dye [8]: greater than 95%

Molecule: Cc1onc(-c2ccccc2)c1C(=O)N[C@@H]1C(=O)N2[C@@H]1SC(C)(C)[C@@H]2C(=O)O [oxacillin]
- change in percentage of eradication when antibiotic was added to the nanoparticles [2]: only slightly increased
- combined PEMF + antibiotic treatment compared to theoretical additive effect [3]: significantly synergistic; also recorded: significant empirical synergism
- eradication of S. epidermidis biofilm by antibiotic alone [3]: Neither oxacillin nor vancomycin alone significantly eradicated
- reduction of total biomass, quantified by CV assay ([4]; PEMF 24-hour exposure + antibiotic at MIC simultaneously, pre-formed biofilm, vs 48-hour control group, mean): 74%
- eradication of S. epidermidis biofilm by antibiotic alone [4]: Neither oxacillin nor vancomycin (FIG. 2, FIG. 3) alone significantly eradicated
- combined PEMF + antibiotic treatment compared to theoretical additive effect [4]: synergistically enhanced; also recorded: significantly synergistic
